Laboratory results taken from ChEMBL document CHEMBL1212904, “Discovery of pyrrole-indoline-2-ones as Aurora kinase inhibitors with a different inhibition profile” (J Med Chem, 2010).

Legend:
Aurora kinase B [1] = molecular target: T1, Aurora kinase B (Homo sapiens, UniProt Q96GD4); test: Inhibition of recombinant aurora B at 1 uM
Aurora kinase A = molecular target: T2, Aurora kinase A (Homo sapiens, UniProt O14965); test: Inhibition of recombinant aurora A
T2 sequence (O14965 whole entry): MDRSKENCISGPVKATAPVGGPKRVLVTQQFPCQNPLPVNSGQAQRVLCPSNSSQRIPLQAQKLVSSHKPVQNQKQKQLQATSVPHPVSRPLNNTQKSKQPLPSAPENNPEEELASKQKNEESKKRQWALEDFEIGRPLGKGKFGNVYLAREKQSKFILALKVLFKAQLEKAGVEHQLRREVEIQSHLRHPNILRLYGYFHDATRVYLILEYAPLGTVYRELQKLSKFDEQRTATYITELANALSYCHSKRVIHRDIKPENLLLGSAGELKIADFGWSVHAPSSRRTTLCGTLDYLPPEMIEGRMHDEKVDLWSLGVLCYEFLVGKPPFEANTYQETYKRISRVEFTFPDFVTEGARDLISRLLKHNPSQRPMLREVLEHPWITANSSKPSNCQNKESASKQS

Aurora kinase B [2] = molecular target: T1, Aurora kinase B; test: Inhibition of recombinant aurora B
HCT-116 [3] = test: Antiproliferative activity against human HCT116 cells after 72 hrs by cell titer 96 assay; format: functional, cell-based; conditions: HCT-116, 72 h
HT-29 = test: Antiproliferative activity against human HT-29 cells after 72 hrs by cell titer 96 assay; format: functional, cell-based; conditions: HT-29, 72 h
HeLa = test: Antiproliferative activity against human HeLa cells after 72 hrs by cell titer 96 assay; format: functional, cell-based
[4] = molecular target: T3, Aurora kinase A (Homo sapiens) (UniProt O14965); test: Inhibition of recombinant aurora A at 1 uM
T3 sequence (whole entry): T2 sequence (O14965 whole entry)

HCT-116 [5] = test: Antiproliferative activity against human HCT116 cells after 72 hrs by [3H]thymidine incorporation assay; format: functional, cell-based

T1 sequence (Q96GD4 whole entry): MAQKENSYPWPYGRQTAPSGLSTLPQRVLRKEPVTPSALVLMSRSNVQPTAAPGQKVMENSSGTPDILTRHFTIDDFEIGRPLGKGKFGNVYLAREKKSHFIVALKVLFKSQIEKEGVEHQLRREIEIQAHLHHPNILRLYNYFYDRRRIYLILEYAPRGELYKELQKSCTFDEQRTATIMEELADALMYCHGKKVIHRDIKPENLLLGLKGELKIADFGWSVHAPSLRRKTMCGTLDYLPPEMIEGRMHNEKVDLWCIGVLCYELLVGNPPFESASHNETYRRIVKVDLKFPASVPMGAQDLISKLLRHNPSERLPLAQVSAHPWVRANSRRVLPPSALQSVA

| Structure (SMILES) | inhibition (Aurora kinase B [1]) [%] | IC50 (Aurora kinase A) [nM] | other results |
| --- | --- | --- | --- |
| CCOC(=O)CCc1c(/C=C2\C(=O)Nc3ccccc32)[nH]c2c1C(=O)CCC2 | 2.3 | – | – |
| COc1cc(-c2ccc3c(c2)/C(=C/c2[nH]c4c(c2CCC(=O)O)C(=O)CCC4)C(=O)N3)ccc1O | 12.4 | – | – |
| CCN(CC)CCCc1c(/C=C2\C(=O)Nc3ccc(NS(=O)(=O)c4ccccc4)cc32)[nH]c2c1C(=O)CCC2 | – | 2450 | IC50 (Aurora kinase B [2]): 356 nM; IC50 (HCT-116 [3]): > 10000 nM; IC50 (HT-29): > 10000 nM; IC50 (HeLa): 8610 nM |
| O=C1Nc2ccc(S(=O)(=O)N3CCc4ccccc43)cc2/C1=C/c1[nH]c2c(c1CCC(=O)N1CCOCC1)C(=O)CCC2 | – | 563 | IC50 (Aurora kinase B [2]): 3150 nM; IC50 (HCT-116 [3]): > 10000 nM; IC50 (HT-29): > 10000 nM; IC50 (HeLa): > 10000 nM |
| CN(C)S(=O)(=O)c1ccc2c(c1)/C(=C/c1[nH]c3c(c1CCC(=O)O)C(=O)CCC3)C(=O)N2 | – | 21 | – |
| CN(C)CCCc1c(/C=C2\C(=O)Nc3ccc(S(=O)(=O)N4CCc5ccccc54)cc32)[nH]c2c1C(=O)CCC2 | – | 2270 | IC50 (Aurora kinase B [2]): 312 nM; IC50 (HCT-116 [3]): 900 nM; IC50 (HT-29): 750 nM; IC50 (HeLa): 1620 nM |
| CC1(C)CC(=O)c2c([nH]c(/C=C3\C(=O)Nc4ccc(F)cc43)c2CCC(=O)O)C1 | 17.3 | 456 | – |
| CCS(=O)(=O)Nc1ccc2c(c1)/C(=C/c1[nH]c3c(c1CCC(=O)O)C(=O)CCC3)C(=O)N2 | 7.3 | 34 | – |
| O=C(O)CCc1c(/C=C2\C(=O)Nc3ccc(F)cc32)[nH]c2c1C(=O)CCCC2 | 2 | – | inhibition [4]: 45.5% |
| CNS(=O)(=O)c1ccc2c(c1)/C(=C/c1[nH]c3c(c1CCC(=O)O)C(=O)CCC3)C(=O)N2 | 2.6 | – | – |
| CCOC(=O)CCc1c(/C=C2\C(=O)Nc3ccc(F)cc32)[nH]c2c1C(=O)CCC2 | 3 | – | – |
| CCN(CC)CCCc1c(/C=C2\C(=O)Nc3ccc(S(=O)(=O)N4CCc5ccccc54)cc32)[nH]c2c1C(=O)CCC2 | – | 2340 | IC50 (Aurora kinase B [2]): 616 nM; IC50 (HCT-116 [3]): 2660 nM; IC50 (HT-29): 2130 nM; IC50 (HeLa): 3270 nM |
| O=C(O)CCc1c(/C=C2\C(=O)Nc3ccccc32)[nH]c2c1C(=O)CCC2 | 13 | – | – |
| CC(=O)Nc1ccc2c(c1)/C(=C/c1[nH]c3c(c1CCC(=O)O)C(=O)CCC3)C(=O)N2 | 12.8 | – | – |
| O=C1Nc2ccc(NS(=O)(=O)c3ccccc3)cc2/C1=C/c1[nH]c2c(c1CCC(=O)N1CCCC1)C(=O)CCC2 | – | 218 | IC50 (Aurora kinase B [2]): 719 nM; IC50 (HCT-116 [3]): > 10000 nM; IC50 (HT-29): > 10000 nM; IC50 (HeLa): > 10000 nM |
| O=C(O)CCc1c(/C=C2\C(=O)Nc3ccc(S(=O)(=O)Cc4ccccc4)cc32)[nH]c2c1C(=O)CCC2 | 11.2 | – | – |
| O=C(O)CCc1c(/C=C2\C(=O)Nc3ccc([N+](=O)[O-])cc32)[nH]c2c1C(=O)CCC2 | 3.4 | – | – |

| Structure (SMILES) | inhibition (Aurora kinase B [1]) [%] | IC50 (Aurora kinase A) [nM] | other results |
| --- | --- | --- | --- |
| O=C(O)CCc1c(/C=C2\C(=O)Nc3ccc(NS(=O)(=O)c4ccc5ccccc5c4)cc32)[nH]c2c1C(=O)CCC2 | 21 | – | inhibition [4]: 40.6% |
| O=C(O)CCc1c(/C=C2\C(=O)Nc3ccc(S(=O)(=O)N4CCc5ccccc54)cc32)[nH]c2c1C(=O)CCC2 | – | 8 | – |
| O=C1Nc2ccc(NS(=O)(=O)c3ccccc3)cc2/C1=C/c1[nH]c2c(c1CCCN1CCCC1)C(=O)CCC2 | – | 2170 | IC50 (Aurora kinase B [2]): 310 nM; IC50 (HCT-116 [3]): > 10000 nM; IC50 (HT-29): 3320 nM; IC50 (HeLa): > 10000 nM |
| O=C(O)CCc1c(/C=C2\C(=O)Nc3ccc(NS(=O)(=O)c4ccccc4)cc32)[nH]c2c1C(=O)CCC2 | – | 12 | IC50 (HCT-116 [3]): > 10000 nM; IC50 (HCT-116 [5]): > 10000 nM; IC50 (HT-29): > 10000 nM |
| O=C(O)CCc1c(/C=C2\C(=O)Nc3ccc(F)cc32)[nH]c2c1C(=O)CCC2 | 11.6 | – | – |
| O=C(O)CCc1c(/C=C2\C(=O)Nc3ccc(S(=O)(=O)Cc4ccc(F)cc4)cc32)[nH]c2c1C(=O)CCC2 | 15.5 | – | – |
| O=C(O)CCc1c(/C=C2\C(=O)Nc3ccc(S(=O)(=O)N4CCCC4)cc32)[nH]c2c1C(=O)CCC2 | – | 7 | – |
| C=CCS(=O)(=O)c1ccc2c(c1)/C(=C/c1[nH]c3c(c1CCC(=O)O)C(=O)CCC3)C(=O)N2 | 32.5 | 39 | – |
| CCS(=O)(=O)c1ccc2c(c1)/C(=C/c1[nH]c3c(c1CCC(=O)O)C(=O)CCC3)C(=O)N2 | 7 | 57 | – |
| CNC(=O)CCc1c(/C=C2\C(=O)Nc3ccc(NS(=O)(=O)c4ccccc4)cc32)[nH]c2c1C(=O)CCC2 | – | 117 | IC50 (Aurora kinase B [2]): 320 nM; IC50 (HCT-116 [3]): > 10000 nM; IC50 (HT-29): > 10000 nM; IC50 (HeLa): > 10000 nM |
| CC(=O)c1c(C)[nH]c(/C=C2\C(=O)Nc3ccc(F)cc32)c1CCC(=O)O | 17.5 | 362 | – |
| O=C(O)CCc1c(/C=C2\C(=O)Nc3ccc(Br)cc32)[nH]c2c1C(=O)CCC2 | 6.8 | – | – |
| NS(=O)(=O)c1ccc2c(c1)/C(=C/c1[nH]c3c(c1CCC(=O)O)C(=O)CCC3)C(=O)N2 | 34.1 | – | – |
| O=C(O)CCc1c(/C=C2\C(=O)Nc3ccc(NC(=O)c4ccccc4)cc32)[nH]c2c1C(=O)CCC2 | 14.2 | 720 | – |
| O=C1Nc2ccc(NS(=O)(=O)c3ccccc3)cc2/C1=C/c1[nH]c2c(c1CCC(=O)N1CCOCC1)C(=O)CCC2 | – | 281 | IC50 (Aurora kinase B [2]): 906 nM; IC50 (HCT-116 [3]): > 10000 nM; IC50 (HT-29): > 10000 nM; IC50 (HeLa): > 10000 nM |
| COc1ccc(-c2ccc3c(c2)/C(=C/c2[nH]c4c(c2CCC(=O)O)C(=O)CCC4)C(=O)N3)cc1OC | 5.1 | – | – |
